Patent US20250134890A1, “ANTIMALARIAL HEXAHYDROPYRIMIDINE ANALOGUES” (UCB BIOPHARMA SRL, priority 2022, published 2025)
Where a name gives a salt, the structure may show the parent alone.

system: Plasmodium falciparum: 3D7 strain; assay: P. falciparum 3D7 asexual blood stage assay (SYBR green readout); format: cell-based; details: Plasmodium falciparum, 3D7, Erythrocyte, 72 h, P. falciparum 3D7 in human erythrocytes, 72 h incubation, SYBR green fluorescence
Procedure, shortened: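 3D7-infected erythrocytes (5% haematocrit, 0.5% parasitaemia) were exposed 72 h at 37 °C under 1% O2/3% CO2 to a 20-point titration (50,000-15 nM final, 0.5% DMSO). Parasite DNA was read by SYBR green fluorescence after overnight lysis. Percent inhibition was set against mefloquine and DMSO, and EC50 came from a biphasic two-site fit.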

| Structure (SMILES) | IC50 |
| --- | --- |
| C[C@H]1C[C@@H](N2C(=N)N[C@](C)(c3cccc(-c4cccc(-c5ccn[nH]5)c4)c3Cl)CC2=O)CCO1 [Example 53, (6S)-6-{2-Chloro-3-[3-(1H-pyrazol-5-yl)phenyl]phenyl}-2-imino-6-methyl-3-[(2S,4S)-2-methyl-tetrahydropyran-4-yl]hexahydro-pyrimidin-4-one trifluoroacetic acid salt] | 25 nM |
| C[C@H]1C[C@@H](N2C(=N)N[C@](C)(c3cccc(-c4cnoc4)c3Cl)CC2=O)CCO1 [Example 54, (6S)-6-[2-Chloro-3-(isoxazol-4-yl)-phenyl]-2-imino-6-methyl-3-[(2S,4S)-2-methyltetrahydropyran-4-yl]hexahydropyrimidin-4-one trifluoroacetic acid salt] | 42 nM |
| C[C@H]1C[C@@H](N2C(=N)N[C@](C)(c3cccc(-c4ccc(Cl)nc4)c3Cl)CC2=O)CCO1 [Example 55, (6S)-6-[2-Chloro-3-(6-chloro-pyridin-3-yl)phenyl]-2-imino-6-methyl-3-[(2S,4S)-2-methyl-tetrahydropyran-4-yl]hexahydro-pyrimidin-4-one trifluoroacetic acid salt] | 11 nM |
| C[C@H]1C[C@@H](N2C(=N)N[C@](C)(c3cccc(-c4cccc5cnn(C)c45)c3Cl)CC2=O)CCO1 [Example 56, (6S)-6-[2-Chloro-3-(1-methyl-indazol-7-yl)phenyl]-2-imino-6-methyl-3-[(2S,4S)-2-methyl-tetrahydropyran-4-yl]hexahydro-pyrimidin-4-one trifluoroacetic acid salt] | 43 nM |
| C[C@H]1C[C@@H](N2C(=N)N[C@](C)(c3cccc(-c4ccncc4Cl)c3Cl)CC2=O)CCO1 [Example 57, (6S)-6-[2-Chloro-3-(3-chloro-pyridin-4-yl)phenyl]-2-imino-6-methyl-3-[(2S,4S)-2-methyl-tetrahydropyran-4-yl]hexahydro-pyrimidin-4-one trifluoroacetic acid salt] | 61 nM |
| COc1cncc(-c2cccc([C@]3(C)CC(=O)N([C@H]4CCO[C@@H](C)C4)C(=N)N3)c2Cl)c1 [Example 58, (6S)-6-[2-Chloro-3-(5-methoxy-pyridin-3-yl)phenyl]-2-imino-6-methyl-3-[(2S,4S)-2-methyl-tetrahydropyran-4-yl]hexahydro-pyrimidin-4-one trifluoroacetic acid salt] | 124 nM |
| COc1cc(-c2cccc([C@]3(C)CC(=O)N([C@H]4CCO[C@@H](C)C4)C(=N)N3)c2Cl)ccn1 [Example 59, (6S)-6-[2-Chloro-3-(2-methoxy-pyridin-4-yl)phenyl]-2-imino-6-methyl-3-[(2S,4S)-2-methyl-tetrahydropyran-4-yl]hexahydro-pyrimidin-4-one trifluoroacetic acid salt] | 61 nM |
| C[C@H]1C[C@@H](N2C(=N)N[C@](C)(c3cccc(-c4ccc(C#N)cc4)c3Cl)CC2=O)CCO1 [Example 60, 4-(2-Chloro-3-{(4S)-2-imino-4-methyl-1-[(2S,4S)-2-methyl-tetrahydropyran-4-yl]-6-oxo-hexahydropyrimidin-4-yl}phenyl)-benzonitrile trifluoroacetic acid salt] | 297 nM |
| C[C@H]1C[C@@H](N2C(=N)N[C@](C)(c3cccc(-c4cn(-c5cc(F)c(F)cc5F)nn4)c3Cl)CC2=O)CCO1 [Example 109, (6S)-6-{2-Chloro-3-[1-(2,4,5-trifluorophenyl)-1,2,3-triazol-4-yl]-phenyl}-2-imino-6-methyl-3-[(2S,4S)-2-methyltetrahydropyran-4-yl]hexahydropyrimidin-4-one hydrochloride] | 171 nM |
| C[C@H]1C[C@@H](N2C(=N)N[C@](C)(c3cccc(-c4cn(CC(F)(F)F)nn4)c3Cl)CC2=O)CCO1 [Example 110, (6S)-6-{2-Chloro-3-[1-(2,2,2-trifluoroethyl)-1,2,3-triazol-4-yl]-phenyl}-2-imino-6-methyl-3-[(2S,4S)-2-methyltetrahydropyran-4-yl]hexahydropyrimidin-4-one hydrochloride] | 13 nM |
| C[C@H]1C[C@@H](N2C(=N)N[C@](C)(c3cccc(-c4cn(-c5cccc(F)c5)nn4)c3Cl)CC2=O)CCO1 [Example 111, (6S)-6-{2-Chloro-3-[1-(3-fluoro-phenyl)-1,2,3-triazol-4-yl]phenyl}-2-imino-6-methyl-3-[(2S,4S)-2-methyltetrahydropyran-4-yl]-hexahydropyrimidin-4-one hydrochloride] | 66 nM |
| C[C@H]1C[C@@H](N2C(=N)N[C@](C)(c3cccc(-c4cn(CCN(C)C)nn4)c3Cl)CC2=O)CCO1 [Example 114, (6S)-6-(2-Chloro-3-{1-[2-(dimethylamino)ethyl]-1,2,3-triazol-4-yl}phenyl)-2-imino-6-methyl-3-[(2S,4S)-2-methyl-tetrahydropyran-4-yl]hexahydro-pyrimidin-4-one trifluoroacetic acid salt] | 938 nM |
| C[C@H]1C[C@@H](N2C(=N)N[C@](C)(c3cccc(-c4cn([C@@H](C)c5cccnc5)nn4)c3Cl)CC2=O)CCO1 [Example 115, (6S)-6-(2-Chloro-3-{1-[(1S)-1-(pyridin-3-yl)ethyl]-1,2,3-triazol-4-yl}phenyl)-2-imino-6-methyl-3-[(2S,4S)-2-methyltetrahydropyran-4-yl]hexahydropyrimidin-4-one trifluoroacetic acid salt] | 210 nM |
| C[C@H]1C[C@@H](N2C(=N)N[C@](C)(c3cccc(-c4cn(CC5CC(F)(F)C5)nn4)c3Cl)CC2=O)CCO1 [Example 116, (6S)-6-(2-Chloro-3-{1-[(3,3-difluorocyclobutyl)methyl]-1,2,3-triazol-4-yl}phenyl)-2-imino-6-methyl-3-[(2S,4S)-2-methyl-tetrahydropyran-4-yl]hexahydro-pyrimidin-4-one trifluoroacetic acid salt] | 208 nM |
| C[C@H]1C[C@@H](N2C(=N)N[C@](C)(c3cccc(-c4cn(Cc5cccnc5)nn4)c3Cl)CC2=O)CCO1 [Example 117, (6S)-6-{2-Chloro-3-[1-(pyridin-3-ylmethyl)-1,2,3-triazol-4-yl]-phenyl}-2-imino-6-methyl-3-[(2S,4S)-2-methyltetrahydropyran-4-yl]hexahydropyrimidin-4-one trifluoroacetic acid salt] | 371 nM |
| C[C@H]1C[C@@H](N2C(=N)N[C@](C)(c3cccc(-c4cn(CCN5CCCC5)nn4)c3Cl)CC2=O)CCO1 [Example 118, (6S)-6-(2-Chloro-3-{1-[2-(pyrrolidin-1-yl)ethyl]-1,2,3-triazol-4-yl}phenyl)-2-imino-6-methyl-3-[(2S,4S)-2-methyl-tetrahydropyran-4-yl]hexahydro-pyrimidin-4-one trifluoroacetic acid salt] | 1010 nM |
| C[C@H]1C[C@@H](N2C(=N)N[C@](C)(c3cccc(-c4cn(-c5ccncc5)nn4)c3Cl)CC2=O)CCO1 [Example 119, (6S)-6-{2-Chloro-3-[1-(pyridin-4-yl)-1,2,3-triazol-4-yl]phenyl}-2-imino-6-methyl-3-[(2S,4S)-2-methyltetrahydropyran-4-yl]-hexahydropyrimidin-4-one trifluoroacetic acid salt] | 296 nM |
| C[C@H]1C[C@@H](N2C(=N)N[C@](C)(c3cccc(-c4cn(Cc5ccncc5)nn4)c3Cl)CC2=O)CCO1 [Example 120, (6S)-6-{2-Chloro-3-[1-(pyridin-4-ylmethyl)-1,2,3-triazol-4-yl]-phenyl}-2-imino-6-methyl-3-[(2S,4S)-2-methyltetrahydropyran-4-yl]hexahydropyrimidin-4-one trifluoroacetic acid salt] | 507 nM |
| C=C(c1ccccc1)n1cc(-c2cccc([C@]3(C)CC(=O)N([C@H]4CCO[C@@H](C)C4)C(=N)N3)c2Cl)nn1 [Example 121, (6S)-6-{2-Chloro-3-[1-(1-phenyl-vinyl)-1,2,3-triazol-4-yl]phenyl}-2-imino-6-methyl-3-[(2S,4S)-2-methyltetrahydropyran-4-yl]-hexahydropyrimidin-4-one trifluoroacetic acid salt] | 185 nM |
| C[C@H]1C[C@@H](N2C(=N)N[C@](C)(c3cccc(-c4cn(C5CCC5)nn4)c3Cl)CC2=O)CCO1 [Example 122, (6S)-6-[2-Chloro-3-(1-cyclobutyl-1,2,3-triazol-4-yl)phenyl]-2-imino-6-methyl-3-[(2S,4S)-2-methyl-tetrahydropyran-4-yl]hexahydro-pyrimidin-4-one trifluoroacetic acid salt] | 101 nM |
| COCCn1cc(-c2cccc([C@]3(C)CC(=O)N([C@H]4CCO[C@@H](C)C4)C(=N)N3)c2Cl)nn1 [Example 123, (6S)-6-{2-Chloro-3-[1-(2-methoxy-ethyl)-1,2,3-triazol-4-yl]phenyl}-2-imino-6-methyl-3-[(2S,4S)-2-methyltetrahydropyran-4-yl]-hexahydropyrimidin-4-one trifluoroacetic acid salt] | 542 nM |

same assay, conditions: Plasmodium falciparum, Erythrocyte; P. falciparum 3D7 in human erythrocytes, 72 h incubation, SYBR green fluorescence; read-out: IC50

| IC50 | Structure (SMILES) |
| --- | --- |
| 122 nM | CN1CCC(N2C(=N)N[C@](C)(c3cccc(-c4cccc(Cl)c4)c3Cl)CC2=O)CC1 [Example 90, (6S)-6-[2-Chloro-3-(3-chloro-phenyl)phenyl]-2-imino-6-methyl-3-(1-methylpiperidin-4-yl)-hexahydropyrimidin-4-one] |
| 6400 nM | CN1CCC(N2C(=N)N[C@](C)(c3cccc(-c4ccc(OC(F)(F)F)cc4Cl)c3Cl)CC2=O)CC1 [Example 91, (6S)-6-{2-Chloro-3-[2-chloro-4-(trifluoromethoxy)phenyl]phenyl}-2-imino-6-methyl-3-(1-methyl-piperidin-4-yl)hexahydropyrimidin-4-one] |
| 50 nM | CN1CCC(N2C(=N)N[C@](C)(c3cccc(-c4cc(Cl)ccc4Cl)c3Cl)CC2=O)CC1 [Example 92, (6S)-6-[2-Chloro-3-(2,5-dichloro-phenyl)phenyl]-2-imino-6-methyl-3-(1-methylpiperidin-4-yl)-hexahydropyrimidin-4-one] |
| 112 nM | CN1CCC(N2C(=N)N[C@](C)(c3cccc(-c4ccc(F)cc4F)c3Cl)CC2=O)CC1 [Example 93, (6S)-6-[2-Chloro-3-(2,4-difluoro-phenyl)phenyl]-2-imino-6-methyl-3-(1-methylpiperidin-4-yl)-hexahydropyrimidin-4-one] |
